The source of these data is patent US20250152585A1, “PHARMACEUTICAL COMPOUND” (Duke Street Bio Limited, priority 2022, published 2025).

Assay [1] concerns the target T1, N-terminally FLAG-tagged PARP2 (amino acids 1-583) (Homo sapiens, UniProt Q9UGN5).
T1 construct: N-terminally FLAG-tagged PARP2 (amino acids 1-583)
Description: PARP2 probe displacement HTRF assay. The format is binding. The conditions noted are these: binned Kd. As for the experimental part:
Data analysis was performed identical as for PARP1.

The target in assay [2] is T2, full length N-terminally FLAG-tagged PARP1 (Homo sapiens, UniProt P09874). In words: PARP1 probe displacement HTRF assay. The conditions noted are these: for Selectivity: PARP1 over PARP2, ratio Kd (PARP2)/Kd (PARP1); for Kd: binned Kd. Background: TR-FRET usually uses a lanthanide donor and a delayed reading to cut background.
T2 sequence (P09874 whole entry): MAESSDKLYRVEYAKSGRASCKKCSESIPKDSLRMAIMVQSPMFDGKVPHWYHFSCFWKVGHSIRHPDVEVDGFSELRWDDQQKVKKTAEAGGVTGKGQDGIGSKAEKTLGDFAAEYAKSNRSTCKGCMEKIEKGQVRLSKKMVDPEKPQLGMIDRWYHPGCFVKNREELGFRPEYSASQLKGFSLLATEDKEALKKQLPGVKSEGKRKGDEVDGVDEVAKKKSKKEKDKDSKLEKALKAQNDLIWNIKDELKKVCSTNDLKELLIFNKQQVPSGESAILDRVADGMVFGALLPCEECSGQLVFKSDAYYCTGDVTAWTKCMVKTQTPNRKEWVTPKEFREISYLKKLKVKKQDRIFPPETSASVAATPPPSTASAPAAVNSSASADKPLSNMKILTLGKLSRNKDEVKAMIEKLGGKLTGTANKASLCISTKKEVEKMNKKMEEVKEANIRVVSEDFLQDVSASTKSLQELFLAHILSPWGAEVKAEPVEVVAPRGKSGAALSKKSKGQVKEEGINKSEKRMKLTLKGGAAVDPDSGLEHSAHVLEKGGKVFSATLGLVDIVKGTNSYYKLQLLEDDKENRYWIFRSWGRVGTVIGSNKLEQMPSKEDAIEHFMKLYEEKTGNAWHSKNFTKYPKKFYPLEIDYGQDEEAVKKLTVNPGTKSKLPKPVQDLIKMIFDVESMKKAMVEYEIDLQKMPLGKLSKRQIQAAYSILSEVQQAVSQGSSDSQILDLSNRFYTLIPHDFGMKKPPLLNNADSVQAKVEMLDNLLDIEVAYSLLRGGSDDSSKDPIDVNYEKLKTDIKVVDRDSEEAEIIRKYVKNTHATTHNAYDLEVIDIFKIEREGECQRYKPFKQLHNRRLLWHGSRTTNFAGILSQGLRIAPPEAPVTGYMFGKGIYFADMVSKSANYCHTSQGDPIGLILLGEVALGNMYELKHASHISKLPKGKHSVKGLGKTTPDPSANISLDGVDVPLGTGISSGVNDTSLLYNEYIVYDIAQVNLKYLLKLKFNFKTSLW
Assay [3] deals with T2, full length N-terminally FLAG-tagged PARP1. In words: PARP1 biochemical DELFIA assay (auto-PARylation). Also on record: recombinant full length human N-terminally FLAG-tagged PARP1.
[4] abbreviates: read-out: PARP1 HTRF, PARP1 probe displacement HTRF.
[5] abbreviates: binned IC50, PARP1 biochemical DELFIA assay.
The mark [6] stands for this setting: read-out: PARP1 HTRF, probe displacement HTRF.
The mark [7] stands for this setting: binned IC50, biochemical auto-PARylation assay.

Like-named read-outs stand apart in the source and are kept apart here.

T1 sequence (Q9UGN5 whole entry, the tested form may be a part): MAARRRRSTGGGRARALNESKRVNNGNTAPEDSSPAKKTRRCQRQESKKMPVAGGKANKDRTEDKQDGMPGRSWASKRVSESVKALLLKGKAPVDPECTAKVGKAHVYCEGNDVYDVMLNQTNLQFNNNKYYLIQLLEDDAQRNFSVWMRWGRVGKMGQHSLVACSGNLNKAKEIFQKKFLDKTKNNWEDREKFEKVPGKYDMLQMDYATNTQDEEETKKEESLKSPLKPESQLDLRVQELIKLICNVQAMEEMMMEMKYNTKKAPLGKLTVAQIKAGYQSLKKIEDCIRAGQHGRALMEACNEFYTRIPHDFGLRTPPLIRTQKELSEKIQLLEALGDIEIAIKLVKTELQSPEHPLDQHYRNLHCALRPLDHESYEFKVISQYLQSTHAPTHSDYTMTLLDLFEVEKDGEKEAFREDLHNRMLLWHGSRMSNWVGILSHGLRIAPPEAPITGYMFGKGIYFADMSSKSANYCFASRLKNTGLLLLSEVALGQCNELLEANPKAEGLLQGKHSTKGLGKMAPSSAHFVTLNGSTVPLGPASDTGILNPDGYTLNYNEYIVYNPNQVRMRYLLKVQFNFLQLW

With `CNC(=O)c1ccc(N2CCC(N3CCC(c4nc5c(c(=O)[nH]4)CCCC5)C3)CC2)cn1` (single isomer, unassigned) [Compound 155b], the Kd is 100 to 1000 nM in assay [1] (PARP2 probe displacement HTRF) and less than 10 nM in assay [2] (setting [4]). For the same compound, the Selectivity entry in assay [2] (probe displacement HTRF) is listed as “+++ (+++ indicate a value of at least 100)”. Also, the IC50 (commonly the concentration that gives 50% inhibition) in assay [3] (setting [5]) is less than 10 nM.
Turning to `CNC(=O)c1ccc(N2CCC(N3CCC(c4nc(C)cc(=O)[nH]4)C3)CC2)cn1` (single isomer, unassigned) [Compound 97b], the Kd in assay [1] (PARP2 probe displacement HTRF) was greater than 10000 nM; in assay [2] (setting [4]), 100 to 1000 nM. For the same compound, in assay [2] (probe displacement HTRF), the Selectivity result is recorded as “− (− indicates a value of less than 10)”. In addition, the IC50 in assay [3] (setting [5]) lay in the range of 100 to 1000 nM.
`CCc1cnc(C2CCN(C3CCC(F)(F)CC3)C2)[nH]c1=O` (single isomer, unassigned) [Compound 38b]: the Kd in assay [1] (PARP2 probe displacement HTRF) was greater than 10000 nM; in assay [2] (setting [4]), 1000 to 10000 nM. In assay [2] (probe displacement HTRF), the Selectivity result is “− (− indicates a value of less than 10)”. Also, the IC50 in assay [3] (setting [5]) is 1000 to 10000 nM.
For `CCc1ccc(C2CCN(C3CCN(c4cnc(C(=O)NC)nc4C)CC3)C2)[nH]c1=O` (single isomer, unassigned) [Compound 246b], the Kd in assay [1] (probe displacement HTRF) is 1000 to 10000 nM; in assay [2] (setting [6]) it was less than 10 nM. In addition, the Selectivity result in assay [2] (probe displacement HTRF) is recorded as “+++ (+++ indicate a value of at least 100)”. Moreover, the IC50 in assay [3] (setting [7]) was less than 10 nM.
Take `CNC(=O)c1ccc(N2CCC(N3CCCC(c4nc5c(Cl)cccc5c(=O)[nH]4)C3)CC2)cn1` (single isomer, unassigned) [Compound 44a]: the results for the Kd in assay [1] (PARP2 probe displacement HTRF) and in assay [2] (setting [4]) were greater than 10000 nM and less than 10 nM, respectively. The Selectivity entry in assay [2] (probe displacement HTRF) was “+++ (+++ indicate a value of at least 100)”. Further, in assay [3] (setting [5]), the IC50 was less than 10 nM.
Consider `CCc1cnc(C2CCCN(CC3CCN(c4ccc(C(=O)NC)nc4)CC3)C2)[nH]c1=O` (racemic) [Compound 39rac], for which the Kd in assay [1] (PARP2 probe displacement HTRF) was greater than 10000 nM; in assay [2] (setting [4]), 100 to 1000 nM. Moreover, in assay [2] (probe displacement HTRF), the Selectivity result was “+ (+ indicates a value of 10 to less than 50)”. Besides, the IC50 in assay [3] (setting [5]) lay within 100 to 1000 nM.
In the case of `CCCc1ccc(C2CCN(C3CCN(c4ccc(C(=O)NC)nc4)CC3)C2)[nH]c1=O` (single isomer, unassigned) [Compound 261b], the Kd in assay [1] (probe displacement HTRF) was 1000 to 10000 nM; in assay [2] (setting [6]) it was less than 10 nM. Besides, in assay [2] (probe displacement HTRF), the Selectivity result is “+++ (+++ indicate a value of at least 100)”. Moreover, the IC50 in assay [3] (setting [7]) is less than 10 nM.
As for `CCc1cnc(C2CCCN(C3CCN(c4ccc(C(=O)NC)nc4)CC3)C2)[nH]c1=O` (single isomer, unassigned) [Compound 31b], the Kd is greater than 10000 nM in assay [1] (PARP2 probe displacement HTRF) and 10 to 100 nM in assay [2] (setting [4]). Also, the Selectivity entry in assay [2] (probe displacement HTRF) is recorded as “+++ (+++ indicate a value of at least 100)”. Also, the IC50 in assay [3] (setting [5]) was in the range of 10 to 100 nM.
Consider `CNC(=O)c1ccc(N2CCC(N3CCC(c4cc5ccc(F)cc5c(=O)[nH]4)C3)CC2)c(C#N)n1` (single isomer, unassigned) [Compound 396b], for which the Kd in assay [1] (probe displacement HTRF) is 100 to 1000 nM; in assay [2] (setting [6]), less than 10 nM. In addition, the Selectivity entry in assay [2] (probe displacement HTRF) is reported as “+++ (+++ indicate a value of at least 100)”. Moreover, the IC50 in assay [3] (setting [7]) was less than 10 nM.
Turning to `CNC(=O)c1ccc(N2CCC(CN3CCC(c4nc5ccccc5c(=O)[nH]4)CC3)CC2)cn1` [Compound 8, N-methyl-5-(4-((4-(4-oxo-3,4-dihydroquinazolin-2-yl)piperidin-1-yl)methyl)piperidin-1-yl)picolinamide], the Kd was greater than 10000 nM in assay [1] (PARP2 probe displacement HTRF) and less than 10 nM in assay [2] (PARP1 HTRF, PARP1 probe displacement HTRF). Moreover, the Selectivity entry in assay [2] (probe displacement HTRF) is “+++ (+++ indicate a value of at least 100)”. For the same compound, the IC50 in assay [3] (setting [5]) was less than 10 nM.
As to `CCc1nc(C(=O)NC)ccc1N1CCC(N2CCCC(c3nc4ccccc4c(=O)[nH]3)C2)CC1` (single isomer, unassigned) [Compound 112b], the values for the Kd in assay [1] (PARP2 probe displacement HTRF) and in assay [2] (setting [4]) were greater than 10000 nM and 10 to 100 nM, respectively. In assay [2] (probe displacement HTRF), the Selectivity result was “+++ (+++ indicate a value of at least 100)”. Moreover, the 50% inhibitory concentration (IC50) in assay [3] (setting [5]) was 10 to 100 nM.
